The species named for one assay is Bos taurus. Description: Inhibition of bovine tubulin polymerization at 3 uM after 1 hr by fluorescence assay relative to control.
The test system of another assay is A549. In words: Antiproliferative activity against human A549 cells assessed as cell viability after 48 hrs by SRB assay. The format is functional, cell-based. The following applies: A549, 48 h. On the technique in general: In SRB staining, fixed cells bind dye roughly in proportion to their protein.
Assay [1] concerns HeLa. In words: Antiproliferative activity against human HeLa cells assessed as cell viability after 48 hrs by SRB assay. The format is functional, cell-based.
The next assay deals with MCF7. Description: Antiproliferative activity against human MCF7 cells assessed as cell viability after 48 hrs by SRB assay. The format is functional, cell-based. The following applies: MCF7, 48 h.
Assay [2] relates to HeLa. Description: Induction of apoptosis in human HeLa cells assessed as increase in caspase 3 activity at 5 uM after 24 hrs by fluorimetry. The format is functional, cell-based.
Assay [3] deals with HeLa. In words: Induction of apoptosis in human HeLa cells assessed as increase in caspase 3 activity at 40 uM after 24 hrs by fluorimetry relative to control. The format is functional.
Assay [4] deals with HeLa. Description: Induction of cell cycle arrest in human HeLa cells assessed as accumulation of cells in G2/M phase at 5 uM after 24 hrs by flow cytometry analysis (reference value: 21.29%). It is filed as functional. In general terms: A flow cytometer gives signals particle by particle.
The nature of assay [5]: Inhibition of bovine tubulin assembly after 1 hr by fluorescence assay. Also noted: species or system Bos taurus.
For assay [6], the system named is HeLa. In words: Induction of cell cycle arrest in human HeLa cells assessed as accumulation of cells in S phase at 5 uM after 24 hrs by flow cytometry analysis (reference value: 9.28%). The format is functional.
Assay [7] deals with HeLa. Description: Induction of cell cycle arrest in human HeLa cells assessed as accumulation of cells in G1 phase at 5 uM after 24 hrs by flow cytometry analysis (reference value: 69.43%). It is filed as functional.
Assay [8] concerns HeLa. In words: Effect on formation of bipolar spindles in human HeLa cells at 5 uM after 24 hrs by indirect immunofluorescence analysis. The format is functional, cell-based.
Assay [9] concerns HeLa. Description: Effect on nuclear condensation in human HeLa cells assessed as incomplete chromosome formation at 5 uM after 24 hrs by indirect immunofluorescence analysis. The format is functional, cell-based.
Assay [10] concerns HeLa. In words: Induction of apoptosis in human HeLa cells assessed as increase in caspase 3 activity at 5 uM after 24 hrs by fluorimetry relative to control. It is filed as functional.
For assay [11], the system named is HeLa. In words: Antimitotic activity in human HeLa cells assessed as disruption of microtubule network at 5 uM after 24 hrs by indirect immunofluorescence analysis. It is filed as functional, cell-based.

Calls of active or inactive are those of the source. No cut-off for these calls is given here.

Results on 13 molecules are retold here after ChEMBL document CHEMBL1833868, “Design and synthesis of resveratrol-based nitrovinylstilbenes as antimitotic agents” (J Med Chem, 2011).

A word on the inhibition: it is how much of the control response was suppressed. Read a high inhibition as strong suppression. By IC50 is commonly meant the concentration needed to halve the response being measured. On to `COc1cc(/C=C/c2c(/C=C/[N+](=O)[O-])cc(OC)c(OC)c2OC)cc(OC)c1`, for which, in the assay filed under Bos taurus, the inhibition was found to be 27%. The half-inhibitory concentration (IC50) in the assay with A549 amounted to 15 µM; in the assay on HeLa [1] (Homo sapiens, HeLa, 48 h), 10 µM; in the assay on MCF7 it was 19.2 µM.

Molecule `COc1cc(/C=C/[N+](=O)[O-])c(/C=C/c2ccccc2)c(OC)c1OC` returned an inhibition in the assay listed under Bos taurus of 31%. In addition, the IC50 in the assay on A549 worked out at 28.9 µM; in the assay on HeLa [1] (Homo sapiens, HeLa, 48 h) it was 5.42 µM; in the assay on MCF7, 10.9 µM.

In the assay listed under Bos taurus, `COc1cc(/C=C/[N+](=O)[O-])c(/C=C/c2ccc(F)cc2)c(OC)c1OC` gave an inhibition of 31%. Moreover, the IC50 amounted to 35.9 µM in the assay with A549; 12.4 µM in the assay on HeLa [1] (Homo sapiens, HeLa, 48 h); 19 µM with MCF7.

`Oc1ccc(/C=C/c2cc(O)cc(O)c2)cc1` [RESVERATROL]: the IC50 in the assay with A549 is 44.7 µM; in the assay with HeLa [1] (Homo sapiens, HeLa, 48 h), 22.5 µM; in the assay on MCF7, 79.1 µM. The outcome in the assay with HeLa [2] was inactive. Moreover, in the assay on HeLa [3], the “fold change (FC)” value amounted to 5.

As for `COc1cc(/C=C/[N+](=O)[O-])c(/C=C/c2ccc(Br)cc2)c(OC)c1OC`, in the assay listed under Bos taurus, the inhibition is 28%. Further, the values for the IC50 in the assay on A549, with HeLa [1] (hela) and with MCF7 were 41 µM, “Not Active” and 14.6 µM, respectively.

`COc1cc(/C=C/[N+](=O)[O-])c(/C=C/c2ccc3ccccc3c2)c(OC)c1OC`: the inhibition in the assay listed under Bos taurus turned out to be 32%. Also, the IC50 was determined as 59.5 µM in the assay on A549; 189 µM in the assay on HeLa [1] (Homo sapiens, HeLa, 48 h); 16.7 µM in the assay on MCF7.

On to `COc1cc(/C=C/[N+](=O)[O-])c(/C=C/c2ccc3c(c2)OCO3)c(OC)c1OC`, for which the inhibition in the assay filed under Bos taurus turned out to be 51%. Besides, the IC50 was 16.3 µM with A549; 8.02 µM in assay [5]; 5.4 µM in the assay with HeLa [1] (Homo sapiens, HeLa, 48 h); 19.2 µM in the assay with MCF7. The Activity was determined as 50.56% in the assay on HeLa [4], 22.3% with HeLa [6] and 27.14% with HeLa [7].

In the assay filed under Bos taurus, `COc1cc2c(c(OC)c1OC)-c1ccc(OC)c(=O)cc1[C@@H](NC(C)=O)CC2` [COLCHICINE] came in with an inhibition of 58%. Besides, in [5], half-maximal inhibition (IC50) required 1.96 µM.

Consider `COc1cc(/C=C/[N+](=O)[O-])c(/C=C/c2ccc(Cl)cc2)c(OC)c1OC`, for which, in the assay filed under Bos taurus, the inhibition came out at 33%. The IC50 in the assay on A549 was 22.8 µM; in the assay with HeLa [1] (hela), “Not Active”; in the assay on MCF7, 25.7 µM.

In the assay filed under Bos taurus, `COc1cc(/C=C/[N+](=O)[O-])c(/C=C/c2ccc(C)cc2)c(OC)c1OC` gave an inhibition of 62%. Further, the result with HeLa [8] was inactive. Further, the IC50 in the assay on A549 turned out to be 19 µM; in [5], 4.27 µM; with HeLa [1] (Homo sapiens, HeLa, 48 h), 4.4 µM; in the assay with MCF7 it was 42.5 µM. Moreover, the Activity with HeLa [4] turned out to be 66.43%; in the assay with HeLa [6] it was 23.91%; in the assay with HeLa [7], 9.66%. The result in the assay with HeLa [9] and with HeLa [11] was Active. In the assay with HeLa [10], the “fold change (FC)” value came out at 12.

In the assay listed under Bos taurus, `COc1ccc(/C=C/c2c(/C=C/[N+](=O)[O-])cc(OC)c(OC)c2OC)cc1` displayed an inhibition of 59%. In addition, the outcome in the assay on HeLa [8] was inactive. Besides, the IC50 stood at 40.4 µM with A549; 4.9 µM in assay [5]; 7.8 µM with HeLa [1] (Homo sapiens, HeLa, 48 h); 21.4 µM in the assay with MCF7. The Activity with HeLa [4] was determined as 60.4%; in the assay with HeLa [6], 22.96%; in the assay on HeLa [7], 16.64%. Further, the result in the assay with HeLa [9] and in the assay on HeLa [11] was Active. For the same molecule, in the assay with HeLa [10], the “fold change (FC)” value was determined as 10.

`COc1cc(/C=C/c2c(/C=C/[N+](=O)[O-])cc(OC)c(OC)c2OC)cc(OC)c1OC` had an inhibition in the assay listed under Bos taurus of 20%. Also, the IC50 in the assay with A549 was 27.1 µM; in the assay on HeLa [1] (hela) it was “Not Active”; in the assay with MCF7, 13.2 µM.

`COc1cc(/C=C/[N+](=O)[O-])c(/C=C/c2ccc(-c3ccccc3)cc2)c(OC)c1OC` showed an inhibition in the assay listed under Bos taurus of 28%. In addition, the IC50 with A549 is 44.4 µM; with HeLa [1] (hela), “Not Active”; with MCF7, 7.2 µM.
